Test results from patent US12691129B2, “Use of carotenoids in the treatment of senescence-related diseases” (ALGAKTIV, S.L., priority 2019, dated 2026).
Read-outs that look alike come from different tables or passages of the source.

Assays:
MV-4-11 cells = experiment: MTT cytotoxicity assay in MV-4-11 cells; format: cell-based, Human; conditions: 6 replicates, read-out: IC50 (μM) (mean ± SD)
Protocol: Human MV-4-11 and PL-21 cell lines were used to evaluate fucoxanthin and amarouciaxanthin A effects in combination with the BCL-2 family inhibitor Navitoclax (ABT-263) and Venetoclax (ABT-199). […] For cytotoxicity determination, MV-4-11 cells and PL-21 cells were plated in 96-well microplates at a density of 10^4 cells/well. After 24 hours, different concentration combinations of Navitoclax or Venetoclax and fucoxanthin or amarouciaxanthin A were added. […] DMSO was used as vehicle control. After this period, 50 μL of SDS 10% were added to the negative control wells (0% viability, 100% mortality). Then, culture media was replaced by fresh media with 10 μL of MTT 5 mg/ml in PBS in each well. […] Next, culture media was removed and 100 μL of extraction buffer (SDS, DSA, acetic acid 2%, pH 4.7) were added to each well. […] Finally, plates were read at 570 nm with the spectrophotometer Multiskan Ascent (MTX Lab systems). The potency of each product was determined through the calculation of IC50 (half maximal inhibitory concentration).

[1] = system: α-SMA in HSC from cirrhotic rats; experiment: α-SMA expression in primary HSC from cirrhotic rats (qPCR, western blot); format: cell-based, rat; conditions: 10 μM, vs vehicle; for inhibition of α-SMA transcription: quantitative PCR
Protocol: (§1) To evaluate the effect of amarouciaxanthin A on HSC activation, the immortalized human cell line LX2 was used. Additionally, primary HSC were extracted from cirrhotic rats which had been subjected to carbon tetrachloride inhalation. In both cases, cells were cultured for 24 h before adding the compound. After that, either amarouciaxanthin A at 10 μM or the vehicle (DMSO) was added to the culture. Cells were harvested at 24 and 72 h post treatment and were lysed to analyze fibrotic biomarkers. Gene transcription was determined by quantitative PCR at 24 and 72 h and protein expression by western blotting at 72 h. α-smooth muscle actin (α-SMA) was analyzed in rat HSC. Collagen I al (COL1A1), which is the main component of the extracellular matrix, was analyzed in LX2.

COL1A1 in LX2 cells = experiment: COL1A1 expression in LX2 cells (qPCR, western blot); format: cell-based, human; conditions: 10 μM, vs vehicle; for inhibition of COL1A1 transcription: quantitative PCR
Protocol: as §1

BJ-11 cells = experiment: Senescence associated β-galactosidase (SA-β-Gal) staining in BJ-11 cells; format: cell-based, human
Protocol: (§2) BJ-11 cell line (human primary skin fibroblasts) was cultured in MEM supplemented with 10% FCS plus 2 mM L-glutamine. All cells were cultured at 37° C. in a humidified 5% CO2-atmosphere and were consistently free of mycoplasma, as evaluated by PCR. All passages were performed between 80 and 90% of confluence and with viability greater than 90%.
In order to evaluate the effects of fucoxanthin on senescence, 10^4 BJ-11 cells were seeded in 24-well plates. Cultures were incubated with different concentrations of palbociclib (Palbo) or doxorubicin (Doxo), as senescence inductors, and fucoxanthin (Fuco), as described in Table 6.
Doxorubicin treatments were performed only for 24 hours. After that, doxorubicin was removed and cells were cultured in complete culture medium during the periods of time indicated below. On the other hand, palbociclib was constantly present in the culture medium and added fresh periodically.
Two different approaches were followed: • Approach 1: Fucoxanthin effects on senescence prevention
After 7 days, β-galactosidase activity was determined.
After that, treatment with fucoxanthin was performed for 7 days. At the end of this period […] activity was determined.
After treatments, SA-β-galactosidase staining was used for the determination of senescence-associated β-galactosidase expression in BJ-11 cells. β-galactosidase staining was performed based on manufacturer's recommendations (9860S, Cell Signaling Technology). Growth media was removed from the cells and the plate was rinsed once with PBS. Then, fixative solution was added to each well and cells were allowed to fix for 10-15 min at room temperature. The plate was rinsed twice with PBS before adding β-Galactosidase Staining Solution to each well. Finally, the plate was incubated at 37° C. for 24 h in a dry incubator (no CO2) for preventing changes in pH, which may affect staining results. The amount of cells positive in β-galactosidase activity (stained in blue) was evaluated by manual stained-cell counting.

PL-21 cells = experiment: MTT cytotoxicity assay in PL-21 cells; format: cell-based, Human; conditions: 72 hours, 6 replicates, read-out: IC50 (μM) (mean ± SD)
Protocol: Human MV-4-11 and PL-21 cell lines were used to evaluate fucoxanthin and amarouciaxanthin A effects in combination with the BCL-2 family inhibitor Navitoclax (ABT-263) and Venetoclax (ABT-199). Cells were cultured in RPMI media supplemented with 10% FCS at 37° C. in a humidified 5% CO2-atmosphere, and were consistently free of mycoplasma, as evaluated by PCR. All passages were performed between 80 and 90% of confluence and with viability above 90%.
For cytotoxicity determination, MV-4-11 cells and PL-21 cells were plated in 96-well microplates at a density of 10^4 cells/well. After 24 hours, different concentration combinations of Navitoclax or Venetoclax and fucoxanthin or amarouciaxanthin A were added. Plates were incubated for 72 hours at 37° C. and 5% CO2. DMSO was used as vehicle control. After this period, 50 μL of SDS 10% were added to the negative control wells (0% viability, 100% mortality). Then, culture media was replaced by fresh media with 10 μL of MTT 5 mg/ml in PBS in each well. Plates were incubated for 4 hours at 37° C. and 5% CO2. Next, culture media was removed and 100 μL of extraction buffer (SDS, DSA, acetic acid 2%, pH 4.7) were added to each well. […] Finally, plates were read at 570 nm with the spectrophotometer Multiskan Ascent (MTX Lab systems). The potency of each product was determined through the calculation of IC50 (half maximal inhibitory concentration).

Sk-Mel-103 cells = experiment: MTT cytotoxicity of Navitoclax in Sk-Mel-103 cells after palbociclib/fucoxanthin pretreatment; format: cell-based, human; conditions: for IC50: 6 replicates, read-out: IC50 of Navitoclax (μM) (mean ± SD)
Protocol: as §2, with “Sk-Mel-103” for “BJ-11”, “(human” for “(human primary”, “melanoma)” for “fibroblasts)”, “DMEM-high glucose” for “MEM”, “FCS.” for “FCS plus 2 mM L-glutamine.”
10^6 Sk-Mel-103 cells were seeded in 24-well plates. Cultures were incubated with palbociclib (Palbo), as a senescence inductor; fucoxanthin; or a combination of them, as described in Table 4. After 7 days, cultures were treated with different concentrations of the BCL2 inhibitor Navitoclax. The cytotoxicity of each condition was determined through the calculation of IC50 (half maximal inhibitory concentration) by an MTT assay.
For cytotoxicity determination, cells were plated in 96-well microplates at a density of 10^4 cells/well. After the initial treatments described above, different concentrations of Navitoclax were added. Plates were then incubated for 72 hours at 37° C. and 5% CO2. DMSO was used as vehicle control. After this period, 50 μL of SDS 10% were added to the negative control wells (0% viability, 100% mortality). Then, culture media was replaced by fresh media with 10 μL of MTT 5 mg/ml in PBS in each well. Plates were incubated for 4 hours at 37° C. and 5% CO2. Next, culture media was removed and 100 μL of extraction buffer (SDS, DSA, acetic acid 2%, pH 4.7) were added to each well. After incubating plates for 1 hour at 37° C. and 5% CO2, cultures were homogenized. Finally, plates were read at 570 nm with the spectrophotometer Multiskan Ascent (MTX Lab systems). The potency of each product was determined through the calculation of IC50 (half maximal inhibitory concentration).

[2] = system: IL-1β, IL-6 and IL-8 secretion by SK-Mel-103 cells; experiment: Secreted interleukins (ELISA) in senescent SK-Mel-103 cells; format: cell-based, human; conditions: fucoxanthin 4 μM, p value<0.01
Protocol: as §2, with “Sk-Mel-103” for “BJ-11”, “(human” for “(human primary”, “melanoma)” for “fibroblasts)”, “DMEM-high glucose” for “MEM”, “FCS.” for “FCS plus 2 mM L-glutamine.”
10^6 Sk-Mel-103 cells were seeded in 24-well plates. Cultures were incubated with palbociclib or doxorubicin, as senescence inductors; fucoxanthin; or a combination of them, as described in Table 9. After treatments, cells and supernatants were collected by centrifugation and stored at −20° C.
Secretion of IL-1β, IL-6 and IL-8 was quantified in the supernatants by commercial ELISA kits (DY201, DY206, DY208, R&D Systems) following manufacturer's instructions. Obtained values were normalized by total cell protein content in each well at the end of the experiment, quantified by Bradford assay (B6916, Sigma-Aldrich). A second normalization was performed by dividing the secreted interleukin after fucoxanthin incubations by its corresponding control of senescent cells.

[3] = senescence induced with doxorubicin 125 nM, vs senescent cells (FIG. 2)
[4] = senescence induced with palbociclib 1 μM, vs senescent cells (FIG. 1)

## CC1=CC(=O)CC(C)(C)[C@@]1(O)CC(=O)/C(C)=C/C=C/C(C)=C/C=C/C=C(C)/C=C/C=C(\C)C=C=C1C(C)(C)C[C@H](O)C[C@@]1(C)O [Amarouciaxanthin A, amarouciaxanthin A]
MV-4-11 cells; 72 hours
  IC50: 1.45 ± 0.27 µM
[1]; 24 h
  inhibition of α-SMA transcription: around 80%
[1]; 72 h
  inhibition of α-SMA transcription: around 80%
[1]; 72 h, western blotting
  reduction of α-SMA expression at the protein level: 95%
COL1A1 in LX2 cells; 24 h
  inhibition of COL1A1 transcription: around 50%
COL1A1 in LX2 cells; 72 h
  inhibition of COL1A1 transcription: around 80%
COL1A1 in LX2 cells; 72 h, western blot
  reduction of collagen expression (protein): around 95%

## COc1cccc2c1C(=O)c1c(O)c3c(c(O)c1C2=O)C[C@@](O)(C(=O)CO)C[C@@H]3O[C@H]1C[C@H](N)[C@H](O)[C@H](C)O1 [Doxorubicin, doxorubicin, reference compound]
BJ-11 cells; Approach 1 (prevention), senescent cells: doxorubicin 25 nM (24 hours) alone, 7 days
  Percentage of cells positive in β-galactosidase activity: >80%
BJ-11 cells; Approach 2 (reversion), senescent cells: doxorubicin 25 nM alone
  Percentage of cells positive in β-galactosidase activity: >80%

## CC1(C)CCC(c2ccc(Cl)cc2)=C(CN2CCN(c3ccc(C(=O)NS(=O)(=O)c4ccc(N[C@H](CCN5CCOCC5)CSc5ccccc5)c(S(=O)(=O)C(F)(F)F)c4)cc3)CC2)C1 [Navitoclax, navitoclax]
MV-4-11 cells; 72 hours
  IC50: 0.14 ± 0.01 µM
PL-21 cells
  IC50: 1.22 ± 0.12 µM
Sk-Mel-103 cells; Sk-Mel-103 control cells (no pretreatment)
  IC50: 8.02 ± 1.31 µM
Sk-Mel-103 cells; Sk-Mel-103 control cells + fucoxanthin 4 μM pretreatment 7 days
  IC50: 4.79 ± 0.911 µM
Sk-Mel-103 cells; Sk-Mel-103 senescent cells (palbociclib 1 μM) + fucoxanthin 4 μM pretreatment 7 days
  IC50: 0.055 ± 0.005 µM
Sk-Mel-103 cells; Sk-Mel-103 senescent cells (palbociclib 1 μM, 7 days)
  IC50: 0.136 ± 0.012 µM

## CC(=O)c1c(C)c2cnc(Nc3ccc(N4CCNCC4)cn3)nc2n(C2CCCC2)c1=O [Palbociclib, palbociclib, reference compound]
BJ-11 cells; Approach 1 (prevention), senescent cells: palbociclib 1 μM alone, 7 days
  Percentage of cells positive in β-galactosidase activity: >98%
BJ-11 cells; Approach 2 (reversion), senescent cells: palbociclib 1 μM alone
  Percentage of cells positive in β-galactosidase activity: >95%

## CC1(C)CCC(c2ccc(Cl)cc2)=C(CN2CCN(c3ccc(C(=O)NS(=O)(=O)c4ccc(NCC5CCOCC5)c([N+](=O)[O-])c4)c(Oc4cnc5[nH]ccc5c4)c3)CC2)C1 [Venetoclax, venetoclax, reference compound]
MV-4-11 cells; Homo sapiens, MV4-11, 72 hours
  IC50: 0.0048 µM

## fucoxanthin
MV-4-11 cells; 72 hours
  IC50: 1.34 ± 0.07 µM
PL-21 cells
  IC50: 10.5 ± 1.55 µM
Sk-Mel-103 cells; Sk-Mel-103, fucoxanthin 4 μM pretreatment 7 days, summary of Table 5
  effect of fucoxanthin pretreatment on senolytic activity of Navitoclax: increased the senolytic activity of Navitoclax
BJ-11 cells; Approach 1 (prevention), fucoxanthin 10 μM simultaneously with doxorubicin 25 nM, 7 days
  Percentage of cells positive in β-galactosidase activity: <5%
BJ-11 cells; Approach 1 (prevention), fucoxanthin 10 μM simultaneously with palbociclib 1 μM, 7 days
  Percentage of cells positive in β-galactosidase activity: <5%
BJ-11 cells; Approach 2 (reversion), doxorubicin 25 nM, 7 days, then fucoxanthin 10 μM for 7 days
  Percentage of cells positive in β-galactosidase activity: <5%
BJ-11 cells; Approach 2 (reversion), palbociclib 1 μM for 7 days, then fucoxanthin 10 μM for 7 days
  Percentage of cells positive in β-galactosidase activity: <5%
BJ-11 cells; BJ-11, doxorubicin or palbociclib induced senescence, prevention and reversion, summary of Tables 7 and 8
  percentage of senescent cells positive in β-galactosidase activity after treatment (in words): reduced
[2]; [3]
  secretion of IL-1β: significantly decreased
  secretion of IL-6: significantly decreased
  secretion of IL-8: significantly decreased
[2]; [4]
  secretion of IL-1β: significantly decreased
  secretion of IL-6: significantly decreased
  secretion of IL-8: significantly decreased
